Measurements: PubChem BioAssay (NCI)
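These data come from cells grown in 96-well plates and exposed to compound for 48 hours at five concentrations. Definition used: TGI = concentration required for complete inhibition of growth.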

How the values were obtained:
Test in all cases: DTP human tumour cell line panel, 48 h
CAKI-1 renal = tested on: CAKI-1 renal
CCRF-CEM leukemia = tested on: CCRF-CEM leukemia
DU-145 prostate = tested on: DU-145 prostate
EKVX NSCLC = tested on: EKVX NSCLC
HOP-62 NSCLC = tested on: HOP-62 NSCLC
HOP-92 NSCLC = tested on: HOP-92 NSCLC
K-562 leukemia = tested on: K-562 leukemia
M14 melanoma = tested on: M14 melanoma
MCF7 breast = tested on: MCF7 breast
MDA-MB-435 = tested on: MDA-MB-435
NCI-H226 lung = tested on: NCI-H226 lung
NCI-H23 lung = tested on: NCI-H23 lung
NCI-H522 lung = tested on: NCI-H522 lung
OVCAR-3 ovarian = tested on: OVCAR-3 ovarian
OVCAR-4 ovarian = tested on: OVCAR-4 ovarian
SF-295 CNS = tested on: SF-295 CNS
SF-539 CNS = tested on: SF-539 CNS
SK-OV-3 ovarian = tested on: SK-OV-3 ovarian
T-47D breast = tested on: T-47D breast
UACC-62 melanoma = tested on: UACC-62 melanoma

Row | SMILES | TGI (CAKI-1 renal) [µM] | TGI (CCRF-CEM leukemia) [µM] | TGI (DU-145 prostate) [µM] | TGI (EKVX NSCLC) [µM] | TGI (HOP-62 NSCLC) [µM] | TGI (HOP-92 NSCLC) [µM] | TGI (K-562 leukemia) [µM] | TGI (M14 melanoma) [µM] | TGI (MCF7 breast) [µM] | TGI (MDA-MB-435) [µM] | TGI (NCI-H226 lung) [µM] | TGI (NCI-H23 lung) [µM] | TGI (NCI-H522 lung) [µM] | TGI (OVCAR-3 ovarian) [µM] | TGI (OVCAR-4 ovarian) [µM] | TGI (SF-295 CNS) [µM] | TGI (SF-539 CNS) [µM] | TGI (SK-OV-3 ovarian) [µM] | TGI (T-47D breast) [µM] | TGI (UACC-62 melanoma) [µM]
1 | CN(C)CC1CCCCCCCCCC(CN(C)C)C1=O (stereo not given) | > 50 | > 26.4 | 31.1 | > 54.2 | > 62.4 | > 48.4 | > 38.5 | > 49.1 | 24.3 | 19.7 | > 60.3 | > 50.5 | 10.5 | > 40.1 | > 41.2 | > 59.7 | > 47 | > 45.6 | 53 | > 44.1
2 | COC(=O)c1c[nH]c2c1-c1cc(C(=O)OCc3ccccc3)n(S(=O)(=O)c3ccc(C)cc3)c1C(=O)C2=O | 2.65 | > 33.3 | 0.287 | 0.291 | 1.06 | 1.29 | > 100 | 0.289 | 0.379 | 0.135 | 0.889 | 0.32 | 0.607 | 0.155 | 1.08 | 0.312 | 0.471 | 3.1 | 2.47 | 0.363
3 | COc1ccc2c(c1)CCCN2S(=O)(=O)c1ccccc1[N+](=O)[O-] | > 100 | 80.9 | > 100 | > 91.9 | > 100 | 97.8 | > 68.9 | > 92.8 | 99.3 | 22 | > 96.2 | > 100 | 66.5 | > 92.3 | > 100 | > 100 | 68.8 | > 77 | > 87.8 | > 97.5
4 | Oc1cccc2cc(Br)cnc12 | > 100 | 7.81 | > 100 | 99 | > 100 | 74.2 | 16.1 | 51.8 | > 100 | > 100 | > 100 | > 72.8 | 9.18 | > 26.3 | > 30.4 | > 100 | 57.3 | > 100 | > 25.7 | 29.2
5 | CCCCCCOc1ccc(C(=O)N(C)O)cc1 | > 91.2 | 23.5 | 66 | > 100 | > 83.5 | > 100 | > 78.8 | 39.3 | > 100 | 98.1 | 59.5 | 65.6 | 90.6 | > 100 | > 100 | > 62.4 | 44.6 | > 97.1 | 99.4 | 60.9
6 | CCN(CC)CCCNc1nc(=O)[nH]c(C)c1C(=O)Nc1ccc2c(c1)c1ccccc1n2CC | > 100 | > 100 | > 100 | > 100 | > 100 | > 100 | > 100 | > 100 | > 100 | > 100 | > 100 | > 100 | > 100 | > 100 | > 100 | > 100 | > 100 | > 100 | > 100 | > 100
7 | O=C(NC(Nc1ccc(F)cc1)(C(F)(F)F)C(F)(F)F)C(C(F)(F)F)C(F)(F)F | > 100 | 19.7 | > 100 | > 100 | > 100 | > 100 | > 100 | > 100 | > 100 | > 100 | > 100 | > 100 | > 89.6 | > 100 | > 43.9 | > 100 | > 85.9 | > 100 | > 100 | > 100
8 | O=c1c(NO)c([N+](=O)[O-])cnn1-c1ccccc1 | 11.2 | 2.8 | 27.6 | 29.8 | 23.1 | 13.9 | 1.86 | 4.09 | 16.5 | 3.34 | 16.5 | 13.2 | 4.86 | 5.76 | 6.95 | 27 | 28.9 | 13.3 | 3.79 | 10.8
9 | CC(C)(C)OC(=O)C1=C2C=C(O)C=CC2(C)N(Cc2ccccc2)C1=N (stereo not given) | 4.19 | > 38.2 | 12.8 | 11.5 | 30.7 | 5.91 | > 32.9 | 10.4 | 9.99 | 21.5 | 28.6 | 31.2 | 4 | 13.8 | 19.1 | 28.2 | 12.7 | 42.1 | 10.2 | 29
10 | COC(=O)[C@]1(c2cc3ccccc3[nH]2)CC2CN(CC(=O)N(C)OC)C1CC2(OC)OC (stereo not given in full) | 56 | 32 | > 100 | > 100 | > 100 | > 100 | 66.4 | > 100 | > 100 | 91.3 | > 100 | > 100 | 44.6 | > 100 | > 100 | > 100 | > 100 | > 100 | 57.1 | > 100
11 | CC1Cc2cc(O)c(O)cc2-c2cc(O)c(O)cc2CC1C (stereo not given) | 48.3 | > 100 | > 100 | 96.2 | 41.9 | 46.7 | 39.5 | 29.7 | 37.1 | 10.5 | 67.8 | 38.6 | 49.8 | 29.3 | 33.9 | 20.8 | 19.6 | > 100 | 63.7 | 19.3
12 | O=c1c2cc(Cl)ccc2[nH]c2cc(O)cc(O)c12 | > 10 | > 10 | > 10 | > 10 | > 10 | > 10 | > 10 | > 10 | > 10 | > 10 | > 10 | > 10 | > 10 | > 10 | > 10 | > 10 | > 10 | > 10 | > 10 | > 10
13 | Cc1nn2c(C(=O)N/N=C/c3ccc([N+](=O)[O-])cc3)c(C)nc2s1 | > 100 | > 100 | > 100 | > 100 | > 100 | > 100 | > 100 | > 100 | > 100 | > 100 | > 100 | > 100 | > 100 | > 100 | > 100 | > 100 | > 100 | 87 | > 100 | > 100
14 | NC(=O)C(=O)C(c1ccccc1)S(=O)(=O)Cc1ccccc1 (stereo not given) | > 100 | > 100 | > 100 | > 100 | > 100 | > 100 | > 100 | > 100 | > 100 | > 100 | > 100 | > 100 | > 100 | > 100 | > 100 | > 100 | > 100 | > 100 | > 100 | > 100
15 | O=C1c2ccccc2CC12Cc1ccccc1C2 | > 100 | > 100 | > 100 | 78.3 | > 100 | 91.9 | > 100 | > 100 | > 100 | > 100 | > 100 | > 100 | > 100 | > 100 | > 100 | > 100 | > 100 | > 100 | > 100 | > 100
16 | C=C(C)C(O)C(O)C[C@@H](C)C1CC[C@]23C[C@]12CCC1[C@@]2(C)CCC(OC(C)=O)C(C)(C)C2CC(OC2OC(CO)C(O)C(O)C2O)[C@]13C (stereo not given in full) | > 100 | 31.2 | 43.3 | > 100 | 31.9 | 25.7 | 46.6 | 28.4 | 31 | 31.7 | 39.9 | 41.6 | 30.7 | 32.3 | 41.8 | 36.7 | 27.8 | 45.7 | 31.6 | 31.8
17 | N#Cc1c(Cl)nc2ccccc2c1N=[N+]=[N-] | 3.12 | 4.24 | 28.1 | 5.53 | 32.7 | 3.32 | 2.45 | 6.48 | 22.5 | 17.7 | 33.1 | 6.3 | 4.62 | 3.76 | 4.24 | 22.4 | 4.6 | 29 | 5.83 | 7.14
